Reference: PubChem BioAssay AID2060349 (Molecular Pharmacology Branch, DTP, NCI, 2025)
Values joined by “and” are separate entries in the source; they are usually repeats but may differ in a detail not shown here. Equal entries are not always repeated.

Test system: 762968-020-R-J2-PDC spheroids viability
Assay: Anticancer human tumor 762968-020-R-J2-PDC patient-derived colon carcinoma cell line growth inhibition [TAK]
Conditions: spheroids with HUVEC and MSC; for viability, T/C: stronger effect = lower value
Text: Combinatorial screen of targeted agents with TAK-243 and ipatasertib in multi-cell type tumor spheroids
A high-throughput screen of multi-cell type tumor spheroids was designed to identify active combinations of targeted small molecules and TAK-243 or ipatasertib. Complex spheroids include a stromal component modeled by human endothelial cells (HUVEC) and fibroblasts modeled by human mesenchymal stem cells (MSCs). The concentration ranges selected for each drug and investigational agent were based upon clinically achievable concentrations if the clinical Cmax of the agent was known.
Compounds. The drugs and investigational agents: TAK-243 (785004), ipatasertib (767898), everolimus (733504), selumetinib (741078), bortezomib (756655), trametinib (758246), ixazomib (758254), vemurafenib (761431), dabrafenib (764134), sapanisertib (764658), alpelisib (765974), and copanlisib (816437), were obtained from the National Cancer Institute (NCI) Developmental Therapeutics Program Chemical Repository. The FDA-approved anticancer drug set is available from the NCI Developmental Therapeutics Program. […] The stock solutions were prepared in dimethyl sulfoxide (DMSO, Sigma-Aldrich, St. Louis, MO, cat. D2650) at 800-fold the tested concentration and stored at -70 degrees C prior to their use. All drugs and investigational agents were tested over a range starting from a high concentration at or near the clinical Cmax and decreasing in half-log increments. If the clinical Cmax for an agent had not been determined, the highest concentration tested was 10 microM.
NCI60 Cell Culture. NCI60 cell lines were obtained from the NCI Developmental Therapeutics Program Tumor Repository. For each lot of cells, the Repository performed Applied Biosystems AmpFLSTR Identifiler testing with PCR amplification to confirm consistency with the published Identifier STR profile for each cell line. Cells were kept in continuous culture for no more than 20 passages. The optimal seeding densities for each of the cell lines at each time point assessed were determined prior to performing the concentration response studies. Briefly, the NCI60 human tumor lines were grown as monolayers in RPMI 1640 medium supplemented with 10% FBS and 2 mmol/L L-glutamine.
An additional 2 lines were from the NCI60 cell line panel including melanomas, MALME-3M and SK-MEL-2. Pooled donor human umbilical vein endothelial cells (HUVEC, Lonza, cat. CC-2519) and human mesenchymal stem cells (hMSC, Lonza, cat. PT-2501) were purchased from Lonza (Walkersville, MD).
PDMR cell lines were grown in complete medium (DC medium): Dulbecco's modified Eagle's medium (DMEM)/F12 supplemented with 5% fetal bovine serum (FBS), 2 mM L-glutamine, 100 U/mL penicillin and 100 µg/ml streptomycin, 0.4 µg/ml hydrocortisone, 10 ng/ml epidermal growth factor (EGF) recombinant human protein, 24 µg/mL adenine, and 0.1 mg/mL primocin. During culture from frozen stock vials, PDMR cells were cultured in the same medium containing 10 µM Y-27632 (see Table 3). The PDCs were cultured in complete DMEM/F12 media without 10 microM Y-27632 dihydrochloride for at least two passages prior to the screen. The pooled donor HUVEC and hMSC were cultured in endothelial cell growth medium 2 (PromoCell, Heidelberg, Germany, cat. C-22011) and mesenchymal stem cell growth medium 2 (PromoCell, cat. C-28009), respectively. For all experiments, HUVEC and hMSC were used at passages </=5.
For the pre-screen, cell seeding densities were determined from a titration spanning the range from 5,000 to 313 cells per well. The mct-spheroids including 60% malignant cells, 25% HUVEC and 15% MSC dispensed as a mixture into U-bottom Ultra-Low Attachment 384-well plates (Corning, NY)
High-throughput Drug Combination Screening.
Prior to their inoculation into 384-well plates, malignant cells, HUVEC, and hMSC were removed from T flasks using TrypLE express (Thermo Fisher Scientific, cat. 12605036) and harvested by centrifugation for 5 min at 233 x g. […]
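Further: spheroids exposed to drug for 7 days before readout.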
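Wherever viability, T/C is given: 100% = DMSO vehicle control wells.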

SMILES | IC50 (curve of compound) | viability, T/C (compound 0.0316 µM) | viability, T/C (compound 0.1 µM) | viability, T/C (compound 0.316 µM) | viability, T/C (compound 1 µM) | viability, T/C (compound 0.000316 µM) | viability, T/C (compound 0.001 µM) | viability, T/C (compound 0.00316 µM) | viability, T/C (compound 0.01 µM) | other results
CC(=O)Nc1cccc(-n2c(=O)n(C3CC3)c(=O)c3c(Nc4ccc(I)cc4F)n(C)c(=O)c(C)c32)c1 | 0.0178 µM and 0.0204 µM |  |  |  |  |  |  |  |  | viability, T/C (compound 94.9 pM): 98.7% and 103%; viability, T/C (compound 0.0003 µM): 103% and 97.5%; viability, T/C (compound 0.000949 µM): 97.3%; viability, T/C (compound 0.003 µM): 86.9% and 80.5%; viability, T/C (compound 0.00949 µM): 60.6% and 73.2%; viability, T/C (compound 0.03 µM): 41.2% and 39%
CC(C)(C)c1nc(-c2cccc(NS(=O)(=O)c3c(F)cccc3F)c2F)c(-c2ccnc(N)n2)s1 | > 10 µM | 85.6% and 94.4% | 82.9% and 88.2% | 92.5% and 85.2% | 86.4% and 81% |  |  |  |  | viability, T/C (compound 3.16 µM): 90.5% and 88.5%; viability, T/C (compound 10 µM): 99.3% and 86.4%
CC(C)NCC(C(=O)N1CCN(c2ncnc3c2C(C)CC3O)CC1)c1ccc(Cl)cc1 (stereo not given) |  |  |  |  |  |  |  |  |  | viability, T/C (compound 0.3 µM): 103% [middle of 10 runs]; viability, T/C (compound 0.949 µM): 101% [middle of 10 runs]; viability, T/C (compound 3 µM): 104% [middle of 10 runs]; viability, T/C (compound 9.49 µM): 99.7% [middle of 10 runs]; IC50 (compound alone, run of 02/28/2020): 17.2 µM; IC50 (compound alone, run of 03/19/2020): > 30 µM
CC(C)n1nc(-c2ccc3oc(N)nc3c2)c2c(N)ncnc21 | > 0.1 µM | 89.5% and 103% | 66.5% and 83.3% |  |  | 99% and 96.9% | 99% and 101% | 98.2% and 101% | 94.8% and 99.8% | 
CCCS(=O)(=O)Nc1ccc(F)c(C(=O)c2c[nH]c3ncc(-c4ccc(Cl)cc4)cc23)c1F | > 100 µM |  |  | 88.9% and 96.2% | 87.8% and 96.9% |  |  |  |  | viability, T/C (compound 3.16 µM): 90.3% and 92.5%; viability, T/C (compound 10 µM): 73.6% and 62.2%; viability, T/C (compound 31.6 µM): 99.2% and 102%; viability, T/C (compound 100 µM): 90.3% and 105%
COC1CC2CCC(C)C(O)(O2)C(=O)C(=O)N2CCCCC2C(=O)OC(C(C)CC2CCC(OCCO)C(OC)C2)CC(=O)C(C)C=C(C)C(O)C(OC)C(=O)C(C)CC(C)C=CC=CC=C1C (stereo not given) | > 0.1 µM | 101% and 107% | 99.1% and 95.3% |  |  | 103% and 106% | 99.4% and 100% | 104% and 96.8% | 105% and 107% | 
COc1c(OCCCN2CCOCC2)ccc2c3n(c(=NC(=O)c4cnc(N)nc4)nc12)CCN3 |  | 93% and 53.6% | 80.6% and 42.5% | 76.2% and 50.6% | 73.9% and 52.4% |  |  | 101% and 102% | 95.3% and 72% | 
Cc1nc(NC(=O)N2CCCC2C(N)=O)sc1-c1ccnc(C(C)(C)C(F)(F)F)c1 (stereo not given) | > 10 µM | 113% and 104% | 106% and 95.2% | 106% and 93.9% | 92.5% and 89.1% |  |  |  |  | viability, T/C (compound 3.16 µM): 91.7% and 87.4%; viability, T/C (compound 10 µM): 92.9% and 87.8%

More lines, main results first:

IC50 (curve of compound) | SMILES | viability, T/C (compound 0.0316 µM) | viability, T/C (compound 0.1 µM) | viability, T/C (compound 0.316 µM) | viability, T/C (compound 1 µM) | viability, T/C (compound 0.000316 µM) | viability, T/C (compound 0.001 µM) | viability, T/C (compound 0.00316 µM) | viability, T/C (compound 0.01 µM) | other results
> 0.01 µM | CC(C)CC(NC(=O)C(Cc1ccccc1)NC(=O)c1cnccn1)B(O)O (stereo not given) |  |  |  |  | 108% and 96.2% | 103% and 99.8% | 109% and 99% | 90.6% and 93.7% | viability, T/C (compound 31.6 pM): 94.6% and 101%; viability, T/C (compound 0.0001 µM): 102% and 101%
> 0.1 µM | CC(C)CC(NC(=O)CNC(=O)c1cc(Cl)ccc1Cl)B1OC(=O)CC(CC(=O)O)(C(=O)O)O1 (stereo not given) | 96.1% and 98% | 78.6% and 80.6% |  |  | 100% and 110% | 109% and 98.2% | 104% and 108% | 97.5% and 107% | 
2.95 µM and 2.24 µM | Cn1cnc2c(F)c(Nc3ccc(Br)cc3Cl)c(C(=O)NOCCO)cc21 |  |  |  |  |  |  |  |  | viability, T/C (compound 0.00949 µM): 103% and 98.9%; viability, T/C (compound 0.03 µM): 93.8% and 91.6%; viability, T/C (compound 0.0949 µM): 89% and 82%; viability, T/C (compound 0.3 µM): 83.4% and 78.8%; viability, T/C (compound 0.949 µM): 67.7% and 64.5%; viability, T/C (compound 3 µM): 49.1% and 44.4%
